The conditions of data set [1]: cited from earlier work; for Human Plasma Conc.: LSD1 inhibitors.
Data set [2] has as its system Lgr5 GFP+ cochlear progenitor cells. The data set can be described thus: Lgr5+ Assay (Stem Cell Proliferation Assay). Format: cell-based.
Data set [3] relates to Lgr5+ cochlear progenitor cells. The data set can be described thus: Quantification of Lgr5+ cochlear progenitor cell proliferation, expansion and enrichment (3D Matrigel culture, Celigo imaging, GFP(+) cell area). To be noted: for proliferation or enrichment of cochlear progenitor cells: inhibitor alone. Format: cell-based, mouse.
[4] abbreviates: EZH2 inhibitors, <= is the upper end of a wrapped range.
The mark [5] stands for this setting: EZH2 inhibitors, active concentration range, <= is the upper end of a wrapped range.
Setting [6] is: active concentration of LSD1 inhibitor, >= is the lower end of a range wrapped over two lines.

“Also recorded” adds a separate entry of the source. Like-named read-outs stand apart in the source and are kept apart here.

For `O=C(N/N=C/c1c(O)ccc2ccccc12)c1ccncc1` [AS 8351], the “Human In Vivo Conc” value in data set [1] (KDM inhibitors) was 1000 to 3000 µM. For the same compound, the “Lgr5 GFP(+) cell count” value in data set [2] (FIG. 37A: 2 μM AS 8351 + 3 μM CHIR99021 + 1 mM VPA in EFI vs EFI-C, EFI-CV) is on record as “further enhances Lgr5 GFP+ progenitor cell proliferation”. In addition, the “Lgr5 GFP(+) cell proliferation percentage” value in data set [2] (FIG. 37B: 2 μM AS 8351 + 3 μM CHIR99021 + 1 mM VPA in EFI vs EFI-C, EFI-CV) is on record as “further enhances enrichment”. Also, the “Lgr5+ Assay” value in data set [2] (KDM inhibitors, active concentration range) is 1 to 3 µM.

Consider `CCS(=O)(=O)N1CCC(C(C)n2c(C)c(C(=O)NCc3c(OC)cc(C)[nH]c3=O)c3ccccc32)CC1` (stereo not shown) [CPI-169], for which the “Human In Vivo Conc” value in data set [1] (setting [4]) was 1 to 10 µM. Also, the “Lgr5+ Assay” value in data set [2] (setting [5]) lay in the range of 0.1 to 10 µM. For the same compound, the “Lgr5 GFP(+) cell count” value in data set [2] (FIG. 11A: 1.11 μM CPI-169 + 4 μM CHIR99021 in EFI vs EFI-C, EFI-CV) is given as “enhances Lgr5 GFP+ progenitor cell proliferation”. Also, the “Lgr5 GFP(+) cell area” value in data set [2] (FIG. 33A: 1.11 μM CPI-169 + 4 μM CHIR99021 in EFI vs CHIR alone) is listed as “enhances Lgr5 GFP+ progenitor cell proliferation”. For the same compound, the “Lgr5 GFP(+) cell area percentage” value in data set [2] (FIG. 33B: 1.11 μM CPI-169 + 4 μM CHIR99021 in EFI vs CHIR alone) is on record as “enhances enrichment”.

On to `COc1cc(C)[nH]c(=O)c1CNC(=O)c1c(C)n([C@H](C)C2CCOCC2)c2ccccc12` [CPI-360], for which the “Human In Vivo Conc” value in data set [1] (setting [4]) was 1 to 10 µM. Further, the “Lgr5+ Assay” value in data set [2] (setting [5]) lay in the range of 0.1 to 10 µM. The figures for the “Lgr5 GFP(+) cell area” value in data set [2] (FIG. 12A: 0-30 μM CPI-360 alone in EFI) and in data set [2] (FIG. 13A-16A: 3.33 μM CPI-360 + 4 μM CHIR99021 in EFI vs CHIR alone) were “does not proliferate” and “enhances Lgr5 GFP+ progenitor cell proliferation; also recorded: enhances Lgr5 GIP+ progenitor cell proliferation”, respectively. In addition, the “Lgr5 GFP(+) cell area percentage” value is on record as “does not enrich” in data set [2] (FIG. 12B: 0-30 μM CPI-360 alone in EFI) and “enhances enrichment” in data set [2] (FIG. 13B-16B: 3.33 μM CPI-360 + 4 μM CHIR99021 in EFI vs CHIR alone).

On to `COc1cc(C)[nH]c(=O)c1CNC(=O)c1c(C)n([C@H](C)C2CCN(CC(F)(F)F)CC2)c2ccccc12` [CPI-1205], for which, in data set [1] (setting [4]), the “Human In Vivo Conc” value was 25 to 250 µM. In addition, the “Lgr5+ Assay” value in data set [2] (setting [5]) is not above 30 µM; in data set [2] (EZH2 inhibitors, lower end of active range wrapped over two lines), not below 100 nM-. For the same compound, the “Lgr5 GFP(+) cell area” value in data set [2] (FIG. 17A: 0-30 μM CPI-1205 alone in EFI) is on record as “does not proliferate”; in data set [2] (FIG. 18A, 19A: 3.33 μM CPI-1205 + 4 μM CHIR99021 in EFI vs CHIR alone) it was “enhances Lgr5 GFP+ progenitor cell proliferation”. For the same compound, the “enrichment of Lgr5 GFP+ cells (y-axis: Lgr5 GFP(+) cell area)” value in data set [2] (FIG. 17B: 0-30 μM CPI-1205 alone in EFI) is listed as “does not enrich”. Further, the “Lgr5 GFP(+) cell area percentage” value in data set [2] (FIG. 18B, 19B: 3.33 μM CPI-1205 + 4 μM CHIR99021 in EFI vs CHIR alone) was “enhances enrichment”. In addition, in data set [3] (in combination with Wnt agonist CHIR99021), the “Lgr5+ progenitor cell proliferation and enrichment” value is “enhanced Lgr5+ progenitor cell proliferation and enrichment”. For the same compound, the “proliferation or enrichment of cochlear progenitor cells” value (“proliferation or enrichment” below) in data set [3] is recorded as “does not promote the proliferation or enrichment”.

Regarding `CCN(c1cc(C#CCN2CCOCC2)cc(C(=O)NCc2c(C)cc(C)[nH]c2=O)c1C)[C@H]1CC[C@H](N(C)CCOC)CC1` [EPZ011989], the “Lgr5 GFP(+) cell area” value is given as “does not proliferate” in data set [2] (FIG. 25A: 0-10 μM EPZ011989 alone in EFI) and “enhances Lgr5 GFP+ progenitor cell proliferation” in data set [2] (FIG. 26A-29A: 123 nM EPZ011989 + 4 uM CHIR99021 in EFI vs CHIR alone). The “enrichment of Lgr5 GFP+ cells (y-axis: Lgr5 GFP(+) cell area)” value in data set [2] (FIG. 25B: 0-10 μM EPZ011989 alone in EFI) is given as “does not enrich”. Further, the “Lgr5 GFP(+) cell area percentage” value in data set [2] (FIG. 26B-29B: 123 nM EPZ011989 + 4 uM CHIR99021 in EFI vs CHIR alone) was “enhances enrichment”. Moreover, in data set [3], the “proliferation or enrichment” value was “does not promote proliferation or enrichment”.

In the case of `O=C(O)c1ccc(CN2CCC(CN[C@@H]3C[C@H]3c3ccccc3)CC2)cc1` [GSK2879552], the “Lgr5 GFP(+) cell count” value in data set [2] (FIG. 4A: 370 nM GSK2879552 + 4 μM CHIR99021 + 1 mM VPA in EFI vs EFI-C, EFI-CV) is reported as “enhances Lgr5 GFP+ progenitor cell proliferation”. Also, in data set [2] (FIG. 4B: 370 nM GSK2879552 + 4 μM CHIR99021 + 1 mM VPA in EFI vs EFI-C, EFI-CV), the “Lgr5 GFP(+) cell proliferation percentage” value is “enhances enrichment”. Besides, in data set [3] (inhibitor 370 nM with CHIR99021 (4 μM) and VPA (1 mM)), the “Lgr5+ progenitor cell proliferation and enrichment” value is “proliferation and enrichment are enhanced”.

Regarding `c1ccc([C@@H]2C[C@H]2NC2CCNCC2)cc1` [GSK-LSD1], the “Human Plasma Conc.” value in data set [1] was 1 to 100 nM. In addition, the “Lgr5 GFP(+) cell count” value in data set [2] (FIG. 5A: 4.5 nM GSK-LSD1 + 4 μM CHIR99021 + 1 mM VPA in EFI vs EFI-C, EFI-CV) is “enhances Lgr5 GFP+ progenitor cell proliferation”. The “Lgr5 GFP(+) cell proliferation percentage” value in data set [2] (FIG. 5B: 4.5 nM GSK-LSD1 + 4 μM CHIR99021 + 1 mM VPA in EFI vs EFI-C, EFI-CV) is given as “enhances enrichment”. Moreover, the “Lgr5+ Assay” value in data set [2] (setting [6]) was not below 4 nM-.

For the compound `CC(=O)O.Cc1cc(C)c(CN2CCc3c(Cl)cc(-c4c(C)noc4C)c(Cl)c3C2=O)c(=O)[nH]1` [PF 06726304 acetate], the “Lgr5 GFP(+) cell area” value in data set [2] (FIG. 20A: 0-90 μM PF 06726304 acetate alone in EFI) is listed as “does not proliferate”; in data set [2] (FIG. 21A, 22A: 370 nM PF 06726304 acetate + 4 μM CHIR99021 in EFI vs CHIR alone), “enhances Lgr5 GFP+ progenitor cell proliferation”. In addition, the “enrichment of Lgr5 GFP+ cells (y-axis: Lgr5 GFP(+) cell area)” value in data set [2] (FIG. 20B: 0-90 μM PF 06726304 acetate alone in EFI) is “does not enrich”. The “Lgr5 GFP(+) cell area percentage” value in data set [2] (FIG. 21B, 22B: 370 nM PF 06726304 acetate + 4 μM CHIR99021 in EFI vs CHIR alone) is given as “enhances enrichment”. Moreover, the “Lgr5+ progenitor cell enrichment” value in data set [3] (in combination with CHIR99021 (FIG. 23, FIG. 24)) is “enriched”. Further, the “proliferation or enrichment” value in data set [3] is “does not promote the proliferation or enrichment”.

Consider `CN1CCN(C(=O)CN[C@H]2C[C@@H]2c2ccc(OCc3ccccc3)cc2)CC1.Cl.Cl` [RN-1 HCl], for which the “Lgr5 GFP(+) cell count” value in data set [2] (FIG. 38A: 0-30 μM RN-1 HCl alone in EFI vs EFI-C, EFI-CV, EFI-CVT (7 μM tranylcypromine)) is “does not proliferate”; in data set [2] (FIG. 39A: 41 nM RN-1 + 4 μM CHIR99021 + 1 mM VPA in EFI vs EFI-C, EFI-CV, EFI-CVT), “further enhances Lgr5 GFP+ progenitor cell proliferation”. Further, the “enrichment of Lgr5 GFP+ cells (y-axis: Lgr5 GFP(+) cell count)” value in data set [2] (FIG. 38B: 0-30 μM RN-1 HCl alone in EFI vs EFI-C, EFI-CV, EFI-CVT) is on record as “does not enrich”; in data set [2] (FIG. 39B: 41 nM RN-1 + 4 μM CHIR99021 + 1 mM VPA in EFI vs EFI-C, EFI-CV, EFI-CVT), “enhances enrichment”. For the same compound, the “proliferation or enrichment” value in data set [3] is recorded as “does not promote the proliferation or enrichment”.

For the compound `CN1CCN(C(=O)CN[C@H]2C[C@@H]2c2ccc(OCc3ccccc3)cc2)CC1.Cl.Cl` [RN-1], the “Human Plasma Conc.” value in data set [1] is 1 to 100 nM. The “Lgr5+ Assay” value in data set [2] (setting [6]) worked out at 0.041 µM.

By Cmax is commonly meant the highest concentration seen after dosing. Consider `NC1CC1c1ccccc1` (stereo not shown) [TCP], for which, in data set [1] (human plasma Cmax, >= and <= are the ends of a wrapped range), the “Human Plasma Conc. Cmax” value is 30 to 200 ng/mL. Also, the Cmax in data set [1] (human plasma Cmax, read-out: Human Plasma Conc. Cmax (molar, in brackets)) was 225 to 1500 nM. Moreover, the “Lgr5+ Assay” value in data set [2] (active concentration of LSD1 inhibitor, <= is the upper end of a range wrapped over two lines) lay in the range of 0.1 to 20 µM.

In the case of `CCN(c1cc(-c2ccc(CN3CCOCC3)cc2)cc(C(=O)NCc2c(C)cc(C)[nH]c2=O)c1C)C1CCOCC1` [tazemetostat], the “Human In Vivo Conc” value is “(200-1600 nM)” in data set [1] (EZH2 inhibitors, >= is the lower end of a wrapped range) and 100 to 800 ng/mL in data set [1] (EZH2 inhibitors). Besides, in data set [2] (setting [5]), the “Lgr5+ Assay” value is 0.1 to 10 µM.

`N[C@@H]1C[C@H]1c1ccccc1` [tranylcypromine]: the “Lgr5 GFP(+) cell count” value in data set [2] (FIG. 1A: 0-10 μM tranylcypromine alone in growth factors (EFI, 50 ng/mL each) vs EFI + 4 μM CHIR99021 (EFI-C) or + 1 mM VPA (EFI-CV)) was “does not proliferate”; in data set [2] (FIG. 2A: 2 μM tranylcypromine + 4 μM CHIR99021 in EFI vs EFI-C, EFI-CV) it was “enhances Lgr5 GFP+ progenitor cell proliferation”; in data set [2] (FIG. 3A: 4 μM tranylcypromine + 4 μM CHIR99021 + 1 mM VPA in EFI vs EFI-CV), “enhances Lgr5 GFP+ progenitor cell proliferation”. In addition, the “Lgr5 GFP(+) cell proliferation percentage” value is reported as “does not enrich” in data set [2] (FIG. 1B: 0-10 μM tranylcypromine alone in EFI vs EFI-C, EFI-CV); “enhances enrichment” in data set [2] (FIG. 2B: 2 μM tranylcypromine + 4 μM CHIR99021 in EFI vs EFI-C, EFI-CV); “enhances enrichment” in data set [2] (FIG. 3B: 4 μM tranylcypromine + 4 μM CHIR99021 + 1 mM VPA in EFI vs EFI-CV). Moreover, the “Lgr5+ progenitor cell proliferation and enrichment” value was “proliferate and are enriched” in data set [3] (combined with CHIR99021 (4 μM) and VPA (1 mM)); “proliferate and are enriched” in data set [3] (combined with Wnt agonist CHIR99021 (4 μM)). For the same compound, the “proliferation or enrichment” value in data set [3] is listed as “does not promote the proliferation or enrichment”.

Values taken from patent publication US20220127568A1, “COMPOSITIONS AND METHODS FOR GENERATING HAIR CELLS BY INHIBITING EPIGENETIC TARGETS” (Frequency Therapeutics, Inc., priority 2019, published 2022).
